The test system of one series is MRC5 cells. Description: viability assay (resazurin). It counts as cell-based. Conditions: three-day treatment, concentration resulting in 70 % viability. As for the experimental part:
MRC5 (2x10^3 cells/well) or THP-1 (8x10^3 cells/well) cells were plated onto 96 well plates and treated with compounds at a final DMSO concentration of 0.5 % (MRC5) or 0.1 % (THP-1).
After 3 days of treatment, resazurin (Acros Organics) was added at a final concentration of 86 μ and incu ated for 2h15 (MRC5) or 3 h (THP-1). Fluorescence (ex. 560 nm, em. 590 nm) was read using a SpectraMax M5 (Molecular devices). GI30 values were calculated as the compound concentration resulting in 70 % viability compared to DMSO treated controls using a nonlinear regression fit using GraphPad Prism with the following equation: (Y=Bottom + (100-Bottom)/(1+(IC50/X)^HillSlope)). […]
After 1.5 h, mice were injected with 10 µL of the prepared CAPTISOL […]
foodpad and also intraperitoneally (for i.p. injection, the 10 µL of CAPTISOL solution was diluted to a final volume of 100 µL using PBS). Organs were collected 5 h after TNF-α […]
LEGENDPlexTM assays (Mouse Pro-inflammatory Chemokine Panel and Mouse Inflammation Panel; Biolegend) were performed to monitor cytokine/chemokine expression. Briefly, popliteal LNs were collected and carefully disrupted in […] ice-cold phosphate buffer, minimizing cell rupture. The suspension was centrifuged at 1,500 rpm for 5 min, and the […]
(Resazurin is reduced to fluorescent resorufin, in cell work by metabolically active cells.)

In a further series the test system is A498. Nature of the series: NCI-60 one-dose screen. It counts as cell-based, human. Conditions: 10 µM, 48 h, Renal Cancer. The protocol: (§1) Adapted from NCI-60 Screening Methodology, one-dose screen:20 Briefly, human tumor cell lines, grown in RPMI 1640 containing 5% FBS and 2 mM L-glutamine, were plated in 96 well plates at densities ranging from 5,000 to 40,000 cells/well 24 h prior to addition of test compounds (here 10 μM 2). 400x solutions of test compounds were prepared in DMSO, then diluted to 2x in medium supplemented with 50 μg/mL gentamicin. 100 μl of this 2x stock was added to cells previously plated in 100 μl medium, resulting in the desired final compound concentration. Cells were fixed in situ with cold TCA: untreated cells at the time of compound addition (Tz) and treated cells 48 h after addition of compound (Ti). Cells were washed, then su f rh damine s uti n μ at . w/v in acetic acid was added to each well and incubated for 10 minutes at room temperature. After washing again, the plates were air dried and bound stain solubilized with 10 mM Trizma base before absorbance was […]
(§2) Percentage growth (%Growth) was calculated as follows:
(§3) when Ti ≥ Tz, %Growth = Ti − Tz x 100 where Ti = absorbance from compound treated cells, Tz = absorbance from untreated cells at time zero, and C = absorbance from control (DMSO) treated cells. […]

The next series deals with BT-549. Nature of the series: NCI-60 one-dose screen. It is filed as cell-based, human. The conditions noted are these: 10 µM, 48 h, Breast Cancer. As for the experimental part:
as §1, §2, §3

The test system of the next series is CAKI-1. Nature of the series: NCI-60 one-dose screen. Conditions: 10 µM, 48 h, Renal Cancer. It is filed as cell-based, human. The protocol:
as §1, §2, §3

The subject of a further series is CCRF-CEM. Description: NCI-60 one-dose screen. It counts as cell-based, human. Conditions: 10 µM, 48 h, Leukemia, relative to no-drug control and time zero. As for the experimental part: as §1, §2, §3
Another series has as its system COLO 205. Nature of the series: NCI-60 one-dose screen. It is filed as cell-based, human. The conditions noted are these: 10 µM, 48 h, Colon Cancer. The protocol:
as §1, §2, §3

The subject of a further series is HCC-2998. Nature of the series: NCI-60 one-dose screen. It is filed as cell-based, human. Conditions: 10 µM, 48 h, Colon Cancer. As for the experimental part: as §1, §2, §3
Another series deals with HCT-116. Nature of the series: NCI-60 one-dose screen. It is filed as cell-based, human. The conditions noted are these: 10 µM, 48 h, Colon Cancer. The protocol:
as §1, §2, §3

The test system of another series is HOP-92. Description: NCI-60 one-dose screen. It counts as cell-based, human. The conditions noted are these: 10 µM, 48 h, Non-Small Cell Lung Cancer. The protocol:
as §1, §2, §3

The next series relates to HS 578T. Description: NCI-60 one-dose screen. It is filed as cell-based, human. Conditions: 10 µM, 48 h, Breast Cancer. The protocol:
as §1, §2, §3

The test system of a further series is HT29. Description: NCI-60 one-dose screen. It is filed as cell-based, human. The conditions noted are these: 10 µM, 48 h, Colon Cancer. As for the experimental part:
as §1, §2, §3

Another series has as its system IGROV1. Nature of the series: NCI-60 one-dose screen. It counts as cell-based, human. The conditions noted are these: 10 µM, 48 h, Ovarian Cancer. As for the experimental part: as §1, §2, §3
The subject of a further series is K-562. Nature of the series: NCI-60 one-dose screen. Conditions: 10 µM, 48 h, Leukemia. It is filed as cell-based, human. The protocol: as §1, §2, §3
The subject of another series is KM12. Description: NCI-60 one-dose screen. It counts as cell-based, human. The conditions noted are these: 10 µM, 48 h, Colon Cancer. As for the experimental part: as §1, §2, §3
A further series relates to MALME-3M. Description: NCI-60 one-dose screen. It counts as cell-based, human. Conditions: 10 µM, 48 h, Melanoma. As for the experimental part: as §1, §2, §3
A further series concerns MCF7. Nature of the series: NCI-60 one-dose screen. It is filed as cell-based, human. Conditions: 10 µM, 48 h, Breast Cancer. The protocol:
as §1, §2, §3

In a further series the test system is MDA-MB-231/ATCC. Description: NCI-60 one-dose screen. Conditions: 10 µM, 48 h, Breast Cancer. It is filed as cell-based, human. The protocol: as §1, §2, §3
In another series the test system is MDA-MB-435. Nature of the series: NCI-60 one-dose screen. It counts as cell-based, human. The conditions noted are these: 10 µM, 48 h, Melanoma, values <0 indicate lethality. As for the experimental part:
as §1, §2, §3

A further series relates to MOLT-4. Description: NCI-60 one-dose screen. Conditions: 10 µM, 48 h, Leukemia. It counts as cell-based, human. The protocol:
as §1, §2, §3

Another series concerns NCI-H226. Description: NCI-60 one-dose screen. It counts as cell-based, human. The conditions noted are these: 10 µM, 48 h, Non-Small Cell Lung Cancer. The protocol:
as §1, §2, §3

The next series deals with NCI-H23. Nature of the series: NCI-60 one-dose screen. It is filed as cell-based, human. Conditions: 10 µM, 48 h, Non-Small Cell Lung Cancer. The protocol: as §1, §2, §3
The test system of the next series is NCI-H322M. Nature of the series: NCI-60 one-dose screen. It is filed as cell-based, human. Conditions: 10 µM, 48 h, Non-Small Cell Lung Cancer. The protocol: as §1, §2, §3
In the next series the test system is NCI-H460. Description: NCI-60 one-dose screen. It is filed as cell-based, human. Conditions: 10 µM, 48 h, Non-Small Cell Lung Cancer. As for the experimental part: as §1, §2, §3
The test system of another series is NCI-H522. Nature of the series: NCI-60 one-dose screen. It is filed as cell-based, human. Conditions: 10 µM, 48 h, Non-Small Cell Lung Cancer. As for the experimental part: as §1, §2, §3
Another series deals with OVCAR-4. Nature of the series: NCI-60 one-dose screen. It is filed as cell-based, human. Conditions: 10 µM, 48 h, Ovarian Cancer. The protocol: as §1, §2, §3
Another series has as its system OVCAR-5. Nature of the series: NCI-60 one-dose screen. It is filed as cell-based, human. The conditions noted are these: 10 µM, 48 h, Ovarian Cancer. As for the experimental part: as §1, §2, §3
The test system of the next series is OVCAR-8. Description: NCI-60 one-dose screen. The conditions noted are these: 10 µM, 48 h, Ovarian Cancer. It counts as cell-based, human. As for the experimental part: as §1, §2, §3
The next series deals with SF-295. Nature of the series: NCI-60 one-dose screen. It counts as cell-based, human. The conditions noted are these: 10 µM, 48 h, CNS Cancer. As for the experimental part:
as §1, §2, §3

The test system of the next series is SK-MEL-2. Nature of the series: NCI-60 one-dose screen. It is filed as cell-based, human. Conditions: 10 µM, 48 h, Melanoma. As for the experimental part: as §1, §2, §3
The test system of another series is SK-OV-3. Nature of the series: NCI-60 one-dose screen. The conditions noted are these: 10 µM, 48 h, Ovarian Cancer. It is filed as cell-based, human. As for the experimental part: as §1, §2, §3
For another series, the system named is SW-620. Description: NCI-60 one-dose screen. Conditions: 10 µM, 48 h, Colon Cancer. It counts as cell-based, human. As for the experimental part: as §1, §2, §3
A further series relates to UACC-257. Nature of the series: NCI-60 one-dose screen. It is filed as cell-based, human. Conditions: 10 µM, 48 h, Melanoma. As for the experimental part: as §1, §2, §3
A further series concerns UO-31. Description: NCI-60 one-dose screen. It counts as cell-based, human. Conditions: 10 µM, 48 h, Renal Cancer. The protocol:
as §1, §2, §3

Each structure is given as a SMILES string.

As for `Cc1cc2c(NC(=O)c3cc(NC(=O)c4ccco4)cc(-c4ccn(C)n4)c3)cccc2nn1` [Compound 2], the GI30 in the series on MRC5 cells was above 10 µM. Further, the “%Growth” value in the series on A498 is on record as 91%; with BT-549 it was 33%; in the series with CAKI-1 it was 22%; in the series on CCRF-CEM, 43%; in the series with COLO 205, 32%; in the series on HCC-2998 it was 66%. For the same molecule, the “%Growth” value with HCT-116 amounted to 38%; with HOP-92 it was 63%; in the series with HS 578T, 19%; in the series with HT29, 21%; in the series with IGROV1, 54%; in the series with K-562 it was 29%. Also, the “%Growth” value in the series on KM12 was 28%; in the series with MALME-3M it was 40%; in the series with MCF7, 22%; in the series with MDA-MB-231/ATCC, 57%; with MDA-MB-435, -47%; in the series on MOLT-4 it was 53%. Moreover, the “%Growth” value is 49% in the series with NCI-H226; 71% in the series on NCI-H23; 86% in the series on NCI-H322M; 18% with NCI-H460; 3% in the series on NCI-H522; 63% in the series with OVCAR-4. Further, the “%Growth” value was 89% in the series with OVCAR-5; 67% in the series with OVCAR-8; 42% in the series on SF-295; 18% with SK-MEL-2; 86% with SK-OV-3; 52% in the series on SW-620. Besides, the “%Growth” value with UACC-257 is recorded as 66%; with UO-31, 43%.

Molecule `Cc1cc2c(NC(=O)c3cc(NC(=O)[C@H]4CCCO4)cc(-c4ccn(C)n4)c3)cccc2nn1` [Compound 5] had a GI30 in the series with MRC5 cells above 10 µM.

(Values after article PMC12188386, “Selective CBP/EP300 Bromodomain Inhibitors: Novel Epigenetic Tools to Counter TNF-α-Driven Inflammation” (JACS Au, 2025).)
